Reference: US8242157B2, “Benzimidazole derivatives useful as TRPM8 channel modulators” (Janssen Pharmaceutica NV, priority 2009, dated 2012)
pIC50: −log10 of the molar value. Where a name gives a salt, the structure may show the parent alone. Read-outs that look alike come from different tables or passages of the source.

Target: T1, canine TRPM8 (Canis lupus familiaris, UniProt Q1A7N1)
T1 construct: expressed in transfected cells
Assay: In Vitro Canine TRPM8 Functional Assay (icilin-induced intracellular Ca2+, FLIPR/FDSS)
Type: cell-based
Details: for inhibition at 0.2 µM: HEK293, 0.2 μM compound, icilin activation, read-out: % Inh @ 0.2 μM
Procedure: The functional activity of representative compounds of the formula (I) of the present invention was quantified by measuring changes in intracellular calcium concentration using a Ca^2+-sensitive fluorescent dye. The changes in fluorescent signal were monitored by a fluorescence plate reader, either a FLIPR™ (Molecular Devices) or FDSS (Hamamatsu).
HEK293 cells stably expressing canine TRPM8 were routinely grown as monolayers in Dulbecco's minimum essential medium supplemented with 10% FBS, 2 mM L-glutamine, 100 units/mL penicillin, 100 ug/mL streptomycin and 400 μg/mL G418. Cells were maintained in 5% CO2 at 37° C. At 24 hr prior to assay, cells were seeded in black wall, clear-base poly-D-lysine coated 384-well plates (BD Biosciences, NJ, USA) at a density of 5,000 cells per well in culture medium and grown overnight in 5% CO2 at 37° C. On assay day, growth media was removed, and cells were loaded with Calcium 3 Dye (Molecular Devices) for 35 min at 37° C., under 5% CO2 and then incubated for 25 min at room temperature and atmosphere. Subsequently, cells were tested for agonist-induced increases in intracellular Ca^2+ levels using FLIPR™ or FDSS. Cells were treated with compounds of the formula (I) at varying concentrations and intracellular […] was measured for 5 min prior to the addition of icilin to all wells to achieve a final concentration that produces approximately an 80% maximal response.
Basal FI was subtracted prior to normalizing data to percent of maximal response. Curves were generated using the average of quadruplicate wells for each data point using nonlinear regression of either sigmoidal dose response or sigmoidal dose response (variable slope). Finally, the EC50 and IC50 values were calculated with the best-fit curve determined by GraphPad Prism

[1] = HEK293 cells stably expressing canine TRPM8
[2] = HEK293 cells stably expressing canine TRPM8, icilin at approx. 80% maximal response, eight-point concentration-response, read-out: IC50

T1 sequence (Q1A7N1 1-1104): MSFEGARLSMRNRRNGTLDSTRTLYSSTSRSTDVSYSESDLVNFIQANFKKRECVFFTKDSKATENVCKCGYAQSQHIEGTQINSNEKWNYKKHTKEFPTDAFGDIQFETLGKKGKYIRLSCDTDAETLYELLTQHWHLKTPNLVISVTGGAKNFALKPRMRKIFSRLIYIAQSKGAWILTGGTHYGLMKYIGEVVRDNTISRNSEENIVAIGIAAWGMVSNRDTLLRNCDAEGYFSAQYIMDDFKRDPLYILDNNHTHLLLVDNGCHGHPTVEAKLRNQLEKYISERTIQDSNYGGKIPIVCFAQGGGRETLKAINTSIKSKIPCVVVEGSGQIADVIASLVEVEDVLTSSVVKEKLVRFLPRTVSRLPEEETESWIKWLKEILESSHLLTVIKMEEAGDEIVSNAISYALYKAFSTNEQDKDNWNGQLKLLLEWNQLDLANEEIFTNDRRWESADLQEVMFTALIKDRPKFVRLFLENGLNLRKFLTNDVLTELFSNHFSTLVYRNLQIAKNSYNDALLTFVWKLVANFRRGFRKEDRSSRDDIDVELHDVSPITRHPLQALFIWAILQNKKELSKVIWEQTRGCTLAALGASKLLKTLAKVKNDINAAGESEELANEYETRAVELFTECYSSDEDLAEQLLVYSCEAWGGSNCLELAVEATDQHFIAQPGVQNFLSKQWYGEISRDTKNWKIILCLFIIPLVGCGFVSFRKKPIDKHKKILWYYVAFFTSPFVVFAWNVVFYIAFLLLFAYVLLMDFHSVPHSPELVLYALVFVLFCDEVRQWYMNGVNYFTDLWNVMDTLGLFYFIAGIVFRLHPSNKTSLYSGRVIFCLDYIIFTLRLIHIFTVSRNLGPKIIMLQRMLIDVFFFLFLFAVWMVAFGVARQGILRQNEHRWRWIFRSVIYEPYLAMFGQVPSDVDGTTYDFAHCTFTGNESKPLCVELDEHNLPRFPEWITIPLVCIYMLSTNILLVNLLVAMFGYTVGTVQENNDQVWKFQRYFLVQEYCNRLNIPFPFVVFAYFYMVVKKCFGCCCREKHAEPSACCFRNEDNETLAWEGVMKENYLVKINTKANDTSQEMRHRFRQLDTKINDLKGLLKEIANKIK

SMILES | inhibition at 0.2 µM [1] [%] | inhibition at 1 µM (re-test, 1 μM, 10 mM stock diluted with 100% DMSO prior to addition to assay buffer) [%] | pIC50 (re-test, 10 mM stock diluted with 100% DMSO prior to addition to assay buffer, read-out: calculated IC50) | pIC50 [2]
CCCCN(c1nc2ccccc2n1Cc1ccccc1)S(=O)(=O)c1ccccc1 [Compound #1, N-(1-benzyl-1H-benzimidazol-2-yl)-N-butyl-benzenesulfonamide] | 19 |  |  | 
CN(c1nc2ccccc2n1C)S(=O)(=O)c1ccccc1 [Compound #3, N-methyl-N-(1-methyl-1H-benzimidazol-2-yl)-benzenesulfonamide] | 9 | 101 | 7.03 | 
CCCCN(c1nc2ccccc2n1C)S(=O)(=O)c1ccccc1 [Compound #4, N-Butyl-N-(1-methyl-1H-benzimidazol-2-yl)-benzenesulfonamide] | 92 |  |  | 7.39
Cn1c(N(Cc2cccc(C(F)(F)F)c2)S(=O)(=O)c2ccccc2)nc2ccccc21 [Compound #12, N-(1-Methyl-1H-benzimidazol-2-yl)-N-(3-trifluoromethyl-benzyl)-benzenesulfonamide] | 102 |  |  | 8.52
Cn1c(N(c2ccc(Cl)cc2)S(=O)(=O)c2ccccc2)nc2ccccc21 [Compound #36, N-(4-Chloro-phenyl)-N-(1-methyl-1H-benzimidazol-2-yl)-benzenesulfonamide] | 94 |  |  | 7.48
O=S(=O)(c1ccccc1)N(Cc1ccc(C(F)(F)F)c(F)c1)c1nc2ccccc2n1CC(F)(F)F [Compound #60, N-(3-Fluoro-4-trifluoromethyl-benzyl)-N-[1-(2,2,2-trifluoro-ethyl)-1H-benzimidazol-2-yl]-benzenesulfonamide] | 89 |  |  | 7.57
O=S(=O)(c1ccccc1)N(Cc1ccc(C(F)(F)F)c(F)c1)c1nc2ccccc2n1CC1CC1 [Compound #71, N-(1-Cyclopropylmethyl-1H-benzimidazol-2-yl)-N-(3-fluoro-4-trifluoromethyl-benzyl)-benzenesulfonamide] | 101 |  |  | 7.43
O=S(=O)(c1ccccc1)N(Cc1ccc(C(F)(F)F)cc1)c1nc2cccc3c2n1CCO3 [Compound #72, N-(3,4-Dihydro-5-oxa-1,2a-diaza-acenaphthylen-2-yl)-N-(4-trifluoromethyl-benzyl)-benzenesulfonamide TFA salt] | 99 |  |  | 7.66
O=S(=O)(c1ccccc1)N(Cc1ccc(OC(F)(F)F)cc1)c1nc2cccc3c2n1CCO3 [Compound #73] | 99 |  |  | 8.47
CCCCN(c1nc2ccccc2n1CCO)S(=O)(=O)c1ccccc1 [compound 2, N-butyl-N-[1-(2-hydroxy-ethyl)-1H-benzimidazol-2-yl]-benzenesulfonamide] | 11 |  |  | 
Cn1c(N(Cc2ccc(F)cc2)S(=O)(=O)c2ccccc2)nc2ccccc21 [compound 8] | 101 |  |  | 8.40
Cn1c(N(Cc2ccc(F)c(F)c2)S(=O)(=O)c2ccccc2)nc2ccccc21 [compound 9] | 101 |  |  | 8.70
Cn1c(N(Cc2ccccc2)S(=O)(=O)c2ccccc2)nc2ccccc21 [compound 10] | 101 |  |  | 8.10
Cn1c(N(Cc2ccc(C(F)(F)F)cc2)S(=O)(=O)c2ccccc2)nc2ccccc21 [compound 11] | 101 |  |  | 8.70
Cn1c(N(Cc2cccc(OC(F)(F)F)c2)S(=O)(=O)c2ccccc2)nc2ccccc21 [compound 13] | 101 |  |  | 8.52
Cn1c(N(Cc2ccc(F)c(C(F)(F)F)c2)S(=O)(=O)c2cccc(Cl)c2)nc2ccccc21 [compound 14] | 97 |  |  | 7.52
Cn1c(N(Cc2ccc(F)c(C(F)(F)F)c2)S(C)(=O)=O)nc2ccccc21 [compound 17] | 99 |  |  | 8.30
Cc1ccc(S(=O)(=O)N(Cc2ccc(F)c(C(F)(F)F)c2)c2nc3ccccc3n2C)cc1 [compound 18] | 106 |  |  | 7.85
Cn1c(N(Cc2ccc(SC(F)(F)F)cc2)S(=O)(=O)c2ccccc2)nc2ccccc21 [compound 19] | 101 |  |  | 9.00
Cn1c(N(Cc2ccc(C(F)(F)F)c(F)c2)S(=O)(=O)c2ccccc2)nc2ccccc21 [compound 21] | 102 |  |  | 9.00
Cn1c(N(Cc2cc(C(F)(F)F)ccc2F)S(=O)(=O)c2ccccc2)nc2ccccc21 [compound 22] | 102 |  |  | 8.22
Cn1c(N(Cc2ccc(OC(F)F)cc2)S(=O)(=O)c2ccccc2)nc2ccccc21 [compound 23] | 102 |  |  | 8.70
CC(C)Cn1c(N(Cc2ccc(C(F)(F)F)cc2)S(=O)(=O)c2ccccc2)nc2ccccc21 [compound 24] | 71 |  |  | 7.11
Cn1c(N(Cc2ccc(OC(F)(F)F)cc2)S(=O)(=O)c2ccc(Cl)cc2)nc2ccccc21 [compound 26] | 102 |  |  | 7.96

SMILES | inhibition at 0.2 µM [1] [%] | inhibition at 1 µM (re-test, 1 μM, 10 mM stock diluted with 100% DMSO prior to addition to assay buffer) [%] | pIC50 (re-test, 10 mM stock diluted with 100% DMSO prior to addition to assay buffer, read-out: calculated IC50) | pIC50 [2]
Cn1c(N(Cc2ccc(OC(F)(F)F)cc2)S(=O)(=O)c2ccc(C(F)(F)F)cc2)nc2ccccc21 [compound 27] | 101 |  |  | 7.31
Cn1c(N(Cc2ccc(C(F)(F)F)cc2)S(=O)(=O)c2ccc(F)cc2)nc2ccccc21 [compound 28] | 95 |  |  | 8.22
CCn1c(N(Cc2ccc(OC(F)(F)F)cc2)S(=O)(=O)c2ccccc2)nc2ccccc21 [compound 29] | 95 |  |  | 8.30
CCn1c(N(Cc2ccc(C(F)(F)F)cc2)S(=O)(=O)c2ccccc2)nc2ccccc21 [compound 30] | 96 |  |  | 8.40
Cn1c(N(Cc2ccc(C(F)(F)F)cc2)S(=O)(=O)c2ccc(C(F)(F)F)cc2)nc2ccccc21 [compound 31] | 96 |  |  | 7.48
Cn1c(N(Cc2ccc(OC(F)(F)F)cc2)S(=O)(=O)c2ccc(F)cc2)nc2ccccc21 [compound 32] | 94 |  |  | 8.22
CCn1c(N(Cc2ccc(C(F)(F)F)c(F)c2)S(=O)(=O)c2ccccc2)nc2ccccc21 [compound 34] | 102 |  |  | 8.15
Cn1c(N(Cc2ccc(C(F)(F)F)c(F)c2)S(=O)(=O)c2ccc(F)cc2)nc2ccccc21 [compound 38] | 102 |  |  | 7.96
Cn1c(N(Cc2ccc(C(F)(F)F)c(F)c2)S(=O)(=O)c2ccc(Cl)cc2)nc2ccccc21 [compound 39] | 102 |  |  | 8.00
Cn1c(N(Cc2ccc(C(F)(F)F)c(F)c2)S(=O)(=O)c2ccc(C(F)(F)F)cc2)nc2ccccc21 [compound 40] | 101 |  |  | 7.22
Cn1c(N(Cc2ccc(C(F)(F)F)cc2)S(=O)(=O)c2ccc(Cl)cc2)nc2ccccc21 [compound 41] | 102 |  |  | 8.05
Cn1c(N(Cc2ccc(C(F)(F)F)cc2)S(=O)(=O)c2ccccc2)nc2cc(F)ccc21 [compound 43] | 100 |  |  | 8.40
CCn1c(N(Cc2ccc(C(F)(F)F)c(F)c2)S(=O)(=O)c2ccccc2)nc2cc(F)ccc21 [compound 48] | 100 |  |  | 8.15
CC(C)Cn1c(N(Cc2ccc(OC(F)(F)F)cc2)S(=O)(=O)c2ccccc2)nc2ccccc21 [compound 49] | 81 |  |  | 7.32
CC(C)Cn1c(N(Cc2ccc(C(F)(F)F)c(F)c2)S(=O)(=O)c2ccccc2)nc2ccccc21 [compound 50] | 82 |  |  | 7.43
CC(C)n1c(N(Cc2ccc(C(F)(F)F)c(F)c2)S(=O)(=O)c2ccccc2)nc2cc(Cl)ccc21 [compound 56] | 96 |  |  | 7.62
Cn1c(N(Cc2ccc(OC(F)(F)F)cc2)S(=O)(=O)c2ccccc2)nc2cc(F)ccc21 [compound 57] | 99 |  |  | 8.05
Cn1c(N(Cc2ccc(C(F)(F)F)c(F)c2)S(=O)(=O)c2ccccc2)nc2cc(F)ccc21 [compound 58] | 99 |  |  | 8.22
O=S(=O)(c1ccccc1)N(Cc1ccc(OC(F)(F)F)cc1)c1nc2ccccc2n1CC(F)(F)F [compound 59] | 76 |  |  | 7.11
CC(C)n1c(N(Cc2ccc(OC(F)(F)F)cc2)S(=O)(=O)c2ccccc2)nc2cc(Cl)ccc21 [compound 61] | 96 |  |  | 7.33
O=S(=O)(c1ccccc1)N(Cc1ccc(OC(F)(F)F)cc1)c1nc2cccc3c2n1CCC3 [compound 62] | 100 |  |  | 7.72
O=S(=O)(c1ccccc1)N(Cc1ccc(C(F)(F)F)c(F)c1)c1nc2cccc3c2n1CCC3 [compound 63] | 101 |  |  | 7.66
O=S(=O)(c1ccccc1)N(Cc1ccc(C(F)(F)F)cc1)c1nc2cccc3c2n1CCC3 [compound 65] | 101 |  |  | 7.77
